According to publication PMC3997506, “Novel PPAR Pan Agonist, ZBH Ameliorates Hyperlipidemia and Insulin Resistance in High Fat Diet Induced Hyperlipidemic Hamster” (PLoS ONE, 2014):

Columns and labels:
[1] = target: T1, hPPARα-LBD (Homo sapiens, UniProt Q07869); experiment: Ligand binding assay with SPR (Biacore T100); conditions: steady state affinity fitting
T1 construct: purchased Cayman chemical
T1 sequence (Q07869 239-466 limits assumed): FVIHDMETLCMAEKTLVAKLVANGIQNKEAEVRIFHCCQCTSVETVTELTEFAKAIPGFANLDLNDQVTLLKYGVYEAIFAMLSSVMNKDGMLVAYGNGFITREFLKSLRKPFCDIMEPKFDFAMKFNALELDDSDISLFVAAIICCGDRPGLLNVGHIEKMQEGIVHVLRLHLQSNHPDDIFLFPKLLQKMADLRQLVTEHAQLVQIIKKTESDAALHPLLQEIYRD
Protocol: (§1) The binding affinities of ZBH for PPARα-LBD, PPARδ-LBD or PPARγ-LBD (Cayman chemical, MI, USA) were assayed using SPR-based Biacore T100 (GE Healthcare/Biacore, Uppsala, Sweden) as described previously, [20].

[2] = target: T2, hPPARγ-LBD (Homo sapiens, UniProt P37231); experiment: Ligand binding assay with SPR (Biacore T100); conditions: steady state affinity fitting
T2 construct: purchased Cayman chemical
T2 sequence (P37231 238-503 limits assumed): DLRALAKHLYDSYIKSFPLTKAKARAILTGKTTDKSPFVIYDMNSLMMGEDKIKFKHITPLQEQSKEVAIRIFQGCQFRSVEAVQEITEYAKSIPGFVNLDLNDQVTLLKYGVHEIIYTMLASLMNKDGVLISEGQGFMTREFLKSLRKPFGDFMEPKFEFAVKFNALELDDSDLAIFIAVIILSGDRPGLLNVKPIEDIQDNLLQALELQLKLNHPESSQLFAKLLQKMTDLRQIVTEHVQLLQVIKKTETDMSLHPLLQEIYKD
Protocol: as §1

[3] = target: T3, hPPARδ-LBD (Homo sapiens, UniProt Q03181); experiment: Ligand binding assay with SPR (Biacore T100); conditions: steady state affinity fitting
T3 construct: purchased Cayman chemical
T3 sequence (Q03181 211-439 limits assumed): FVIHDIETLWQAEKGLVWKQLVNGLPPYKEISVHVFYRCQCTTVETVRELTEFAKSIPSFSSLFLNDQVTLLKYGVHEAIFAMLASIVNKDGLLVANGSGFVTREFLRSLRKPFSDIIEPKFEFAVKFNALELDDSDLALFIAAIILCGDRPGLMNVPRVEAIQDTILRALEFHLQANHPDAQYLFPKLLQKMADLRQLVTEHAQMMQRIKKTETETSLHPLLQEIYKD
Protocol: as §1

[4] = test system: hyperlipidemic hamsters; experiment: High fat diet induced hyperlipidemic hamster, 5-week oral treatment; assay type: in vivo, golden Syrian hamsters (Mesocricetus auratus)
Source text: Male golden Syrian hamsters (Mesocricetus auratus) weighing 90–110 g were purchased from Vital River Laboratory Animal Technology Co. Ltd. (Beijing, China). Animals were maintained on a 12-h day/night schedule with ad libitum access to nutrition and water. […] Blood samples were taken after overnight fasting from the suborbital sinus under light sevoflurane anesthesia on the fifth and tenth day for measurement of serum total cholesterol (TC) and triglyceride (TG). […] The dose selection of ZBH was based on previous pilot study. Hamsters with standard rodent diet were used as normal control. Compounds were dissolved in DMSO and suspended in 0.5% methylcellulose and administered by gavage once a day for 5 weeks. Individual body weight and cage food consumption were measured every two days. Dynamic serum lipid monitoring was performed weekly and blood samples were taken from the retro-orbital venous plexus under light ether anesthesia using a glass capillary tube after overnight fasting. Then the animal were sacrificed by cervical decapitation under anesthesia, and the liver, heart, epididymal white adipose tissue (eWAT) and gastrocnemius muscle were excised, rapidly frozen in liquid nitrogen and maintained at −80°C until analysis. Serum TC, TG and free fatty acids (FFA) were measured by using commercial kit (Nanjing Jiancheng, Bioengineering Institute, Nanjing, China) as previously described. Serum glucose, low-density lipoprotein cholesterol (LDLc) and high-density lipoprotein cholesterol (HDLc) were measured with the Hitachi 917 automated biochemistry analyzer (Roche diagnostics, Indianapolis, USA). Serum insulin was quantified by ELISA using a hamster insulin assay kit (Crystal Chem Inc., IL, and USA). The insulin sensitivity index (ISI) was calculated by the values of fasting blood glucose (FBG) and fasting blood insulin (FBI). ISI = 1/(FBG×FBI) 1000 [21]. […] After evaporation of the chloroform under nitrogen, lipid samples were resuspended in isopropyl alcohol, and TG and TC content was determined by enzymatic assay. […] Frozen liver samples were used to perform hepatic lipid specific staining with Oil Red O staining.

[5] = test system: 3T3-L1 adipocytes; experiment: Adiponectin expression in 3T3-L1 adipocytes; assay type: cell-based; conditions: 10–100 µM, dose dependent, data not shown

COc1ccc(/C=C/c2cc(OC)cc(OCCCC(C)(C)C(=O)O)c2)cc1 [ZBH, (E)-5-(3-methoxy-5-(4-methoxystyryl)phenoxy) -2,2-dimethylpentanoic acid]
Kd [1]: 0.826 µM | Kd [2]: 3.9 µM | Kd [3]: 4.17 µM | Kidney weight ([4]; 6.25 mg/kg, 5 weeks): 1.01 ± 0.08 g | Liver weight ([4]; 6.25 mg/kg, 5 weeks): 7.78 ± 0.23 g | Retroperitoneal WAT ([4]; 6.25 mg/kg, 5 weeks): 13.93 ± 0.82 g | Subcutaneous WAT ([4]; 6.25 mg/kg, 5 weeks): 7.28 ± 0.32 g | iBAT ([4]; 6.25 mg/kg, 5 weeks): 0.23 ± 0.01 g | Kidney weight ([4]; 12.5 mg/kg, 5 weeks): 0.95 ± 0.09 g | Liver weight ([4]; 12.5 mg/kg, 5 weeks): 7.77 ± 0.31 g | Retroperitoneal WAT ([4]; 12.5 mg/kg, 5 weeks): 12.63 ± 0.66 g | Subcutaneous WAT ([4]; 12.5 mg/kg, 5 weeks): 6.53 ± 0.42 g | iBAT ([4]; 12.5 mg/kg, 5 weeks): 0.21 ± 0.01 g | maximum decrease in serum insulin levels ([4]; 25 mg kg^−1, 5 weeks): 84% | serum FFA ([4]; 25 mg kg^−1, after one-week treatment until the end): lowered remarkably | Kidney weight ([4]; 25 mg/kg, 5 weeks): 0.94 ± 0.05 g | Liver weight ([4]; 25 mg/kg, 5 weeks): 8.52 ± 0.45 g | Retroperitoneal WAT ([4]; 25 mg/kg, 5 weeks): 10.43 ± 0.39 g | Subcutaneous WAT ([4]; 25 mg/kg, 5 weeks): 5.19 ± 0.12 g | iBAT ([4]; 25 mg/kg, 5 weeks): 0.19 ± 0.01 g | hepatic TG contents / hepatic steatosis ([4]; 5 weeks, Figure 7): greatly lowered | serum GOT, GPT, CK and creatinine levels ([4]; 5 weeks, Figure S1): not altered | increase of the weight of the liver ([4]; 6.25-25 mg/kg, after 5 weeks, vs MC): 7%∼17 | serum TG, TC and LDLc ([4]; 12.5 or 25 mg kg^−1): time and dose-dependent decrease | impact on food intake ([4]; Figure 5B): negligible | body weight gain ([4]; ZBH 25 mg/kg, bezafibrate 50 mg/kg, Figure 5A): gained less weight | increase in relative liver weight ([4]; highest dose, relative to MC): 17% | adiponectin expression [5]: dramatically up-regulate
